The target of assay [1] is purified mushroom tyrosinase (MT) (Agaricus bisporus, UniProt C7FF04). Description: DOPA oxidation (dopachrome, 475 nm) assay with partially purified commercial MT. It counts as biochemical. How it is done:
(§1) Each one mL assay contained a final concentration of 100 mM sodium phosphate (pH 6.5) and 2 mM DOPA. Crude, commercial or partially purified tyrosinase was added to initiate the reaction. […] Rates were determined from the linear portion of the absorbance vs. time curves. Crude enzyme was use at a concentration of 0.1 units (8.4 μg protein) per mL in the assay and assayed in the presence of 0.1% SDS. Commercial tyrosinase was used at a concentration of 0.038 units (3.3 μg protein) per mL in the assay. The purified enzyme was used at a concentration of 0.0067 units (0.58 μg protein) per mL in the assay.
(§2) Various amounts of inhibitors were added into assays to determine a range of inhibitors needed to encompass the IC50 value. Then assays were repeated within this range of inhibitor concentrations. Rates were determined as above. […] For the crude and commercial MT, experiments were repeated at least twice and the average IC50 value reported. Because of the limited amount of purified tyrosinase, not all experiments could be repeated twice. In experiments requiring DMSO to dissolve the inhibitor, control assays contained the assay mixture with DMSO but minus inhibitor. Final DMSO concentrations were 5% or less in the assays.

For assay [2], the target named is commercial mushroom tyrosinase (MT) (Agaricus bisporus, UniProt C7FF04). Description: DOPA oxidation (dopachrome, 475 nm) assay with commercial MT. Conditions: for IC50: read-out: IC50 Commer. MT. Format: biochemical. How it is done: Commercial mushroom tyrosinase was purchased from Worthington Biochemical Corp. (Lakewood, NJ, USA). Substrates and inhibitors were obtained from Sigma-Aldrich (St. Louis, MO, USA). Anisaldehyde was obtained form J.T. Baker Chemical Co. (Phillipsburg, NJ, USA). Dimethyl sulfoxide (DMSO) was reagent grade from Sigma-Aldrich (St. Louis, MO, USA).
commercial mushroom tyrosinase (MT), sequence (C7FF04 1-392): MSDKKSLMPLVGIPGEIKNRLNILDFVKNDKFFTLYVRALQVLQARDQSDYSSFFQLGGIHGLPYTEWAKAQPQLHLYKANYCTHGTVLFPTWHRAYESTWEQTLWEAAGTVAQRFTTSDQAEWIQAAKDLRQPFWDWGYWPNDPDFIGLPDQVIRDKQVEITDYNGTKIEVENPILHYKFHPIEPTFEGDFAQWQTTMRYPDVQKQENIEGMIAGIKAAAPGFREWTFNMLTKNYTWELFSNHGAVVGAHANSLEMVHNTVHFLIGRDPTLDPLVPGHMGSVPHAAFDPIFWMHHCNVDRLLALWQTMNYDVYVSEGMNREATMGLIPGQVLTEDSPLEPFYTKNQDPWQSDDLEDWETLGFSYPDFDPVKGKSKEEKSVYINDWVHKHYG
commercial mushroom tyrosinase (MT), sequence (G1K3P4 entry or part of it, further chain): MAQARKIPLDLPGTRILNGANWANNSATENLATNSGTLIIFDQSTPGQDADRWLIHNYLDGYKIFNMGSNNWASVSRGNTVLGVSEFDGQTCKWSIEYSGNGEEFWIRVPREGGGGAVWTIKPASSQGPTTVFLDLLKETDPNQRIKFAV
(§3) White button mushrooms were purchased from local stores and blended in 100 mM sodium phosphate (pH 6.0) containing 1 mM EDTA, 1 mM PMSF, 5 mM ascorbic acid and 1 M sucrose. The homogenates were filtered and stored at −15 °C in small aliquots. Commercial mushroom tyrosinase. Mushroom tyrosinase was dissolved in the above buffer without ascorbic acid at 2 mg dry weight/mL and stored at 5 °C in small aliquots.
as §1, §2

The target in a further assay is mushroom tyrosinase. The settings on record: cited from earlier work.
The target in assay [3] is crude mushroom tyrosinase (MT) extract. The assay can be described thus: DOPA oxidation (dopachrome, 475 nm) assay with crude MT extract, with 0.1% SDS. It counts as biochemical, White button mushrooms. How it is done:
as §3, §1, §2

For assay [4], the system named is mushroom tyrosinase (crude, commercial and purified MT). The assay can be described thus: DOPA oxidation assay, statements pooled over crude, commercial and purified MT. Format: biochemical. How it is done:
Each one mL assay contained a final concentration of 100 mM sodium phosphate (pH 6.5) and 2 mM DOPA. Crude, commercial or partially purified tyrosinase was added to initiate the reaction. Oxidation of DOPA into dopachrome was monitored at 475 nm. One unit of activity was defined as 1 μmole dopachrome formed per min per ml enzyme using an extinction coefficient of 3600 M^−1 cm^−1. Rates were determined from the linear portion of the absorbance vs. time curves. Crude enzyme was use at a concentration of 0.1 units (8.4 μg protein) per mL in the assay and assayed in the presence of 0.1% SDS. Commercial tyrosinase was used at a concentration of 0.038 units (3.3 μg protein) per mL in the assay. The purified enzyme was used at a concentration of 0.0067 units (0.58 μg protein) per mL in the assay.
Various amounts of inhibitors were added into assays to determine a range of inhibitors needed to encompass the IC50 value. Then assays were repeated within this range of inhibitor concentrations. Rates were determined as above. […] The concentration of inhibitor needed to inhibit 50% of the tyrosinase activity was extrapolated from % activity vs. [inhibitor] curves. For some inhibitors, we also used Statistical Data Analysis Software (SDAS, version 2008A) using an exponential equation to obtain a best fit curve and then to calculate IC50 values. For the crude and commercial MT, experiments were repeated at least twice and the average IC50 value reported. Because of the limited amount of purified tyrosinase, not all experiments could be repeated twice. In experiments requiring DMSO to dissolve the inhibitor, control assays contained the assay mixture with DMSO but minus inhibitor. Final DMSO concentrations were 5% or less in the assays.

Read-outs that look alike come from different tables or passages of the source. Where only a bound is given, the exact number is not on record here.

The values below come from article PMC2769143, “Variations in IC50 Values with Purity of Mushroom Tyrosinase” (International Journal of Molecular Sciences, 2009).

As usually defined, the IC50 is the concentration needed to halve the response being measured.

purified mushroom tyrosinase (MT), sequence (C7FF04 1-392): as the sequence (C7FF04 1-392) above
purified mushroom tyrosinase (MT), sequence (G1K3P4 entry or part of it, further chain): as the sequence (G1K3P4 entry or part of it, further chain) above

4,4’-dihydroxy-biphenyl [biphenol]: the “Concentration beyond which purified MT activity increases” value in assay [1] (2 mM DOPA) was greater than 100 µM. In addition, the IC50 in assay [1] (2 mM DOPA, pH 6.5) is 67 µM; in assay [2] (2 mM DOPA, pH 6.5), 10 µM; at mushroom tyrosinase (tyrosine as substrate, read-out: Reported IC50 Values), 1.9 µM; in assay [3] (2 mM DOPA, pH 6.5, 0.1% SDS), 50 µM.

Consider `CCCCCCc1ccc(O)cc1O` [4-HR, 4-hexylresorcinol], for which the IC50 at mushroom tyrosinase (read-out: Reported IC50 Values) was 0.85 µM; in assay [3] (2 mM DOPA, pH 6.5, 0.1% SDS) it was 5.8 µM.

For the compound `N.N.S.S.[S]=[Mo]=[S]` [ATTM, ammonium tetrathiomolybdate], the IC50 in assay [2] (2 mM DOPA, pH 6.5) was 3.3 µM; on mushroom tyrosinase (read-out: Reported IC50 Values), 2 µM; in assay [3] (2 mM DOPA, pH 6.5, 0.1% SDS), 3.4 µM.

As to `[Cl-].[Na+]` [NaCl], the IC50 was 25000 µM at mushroom tyrosinase (DOPA as substrate, read-out: Reported IC50 Values) and 65000 µM in assay [3] (2 mM DOPA, pH 6.5, 0.1% SDS).

On to `O=S(=O)([O-])[O-].[Zn+2]` [ZnSO4], for which the “Inhibition of purified MT” value in assay [1] (at 1 mM) is given as “none@1 mM”. The “Inhibition of commercial MT” value in assay [2] (at 1 mM) is recorded as “none@1 mM”. In addition, the “Inhibition of MT” value in assay [4] (concentrations up to 1 mM) is “no inhibition”. The IC50 on mushroom tyrosinase (assay coupling DOPA oxidation to thymol blue coloration, read-out: Reported IC50 Values) is 50 µM. In assay [3] (at 1 mM), the “Inhibition of crude MT” value is recorded as “none@1 mM”.

Regarding `COc1ccc(C=O)cc1` [anisaldehyde], the IC50 in assay [4] (2 mM DOPA, read-out: IC50, range between crude, commercial and purified MT) is 1000 to 1800 µM; on mushroom tyrosinase (read-out: Reported IC50 Values), 160 µM; in assay [3] (2 mM DOPA, pH 6.5, 0.1% SDS), 1000 µM.

Regarding `COc1ccc(C(=O)O)cc1` [anisic acid], at mushroom tyrosinase (read-out: Reported IC50 value), the 50% inhibitory concentration (IC50) was 680 µM.

For the compound `CSC` [dimethyl sulfide], the “Inhibition of purified MT” value in assay [1] (to 500 μM) is given as “NI to 500 μM”. For the same compound, the “Inhibition of commercial MT” value in assay [2] (to 500 μM) is given as “NI to 500 μM”. For the same compound, the “Inhibition of MT” value in assay [4] (up to 500 μM, any of the MT samples) is “Little to no inhibition”. Also, the “Inhibition of crude MT” value in assay [3] (to 500 μM) is recorded as “NI to 500 μM”.

Consider `CS(C)(=O)=O` [dimethyl sulfone], for which the “Inhibition of purified MT” value in assay [1] (to 2 mM) is “NI to 2 mM”. The “Inhibition of commercial MT” value in assay [2] (to 2 mM) is “NI to 2 mM”. Moreover, in assay [4] (up to 2 mM), the Inhibition of tyrosinase entry is recorded as “relatively little inhibition”. The “Inhibition of crude MT” value in assay [3] (to 2 mM) was “NI to 2 mM”.

For the compound `O=c1ccc2cc(O)c(O)cc2o1` [esculetin], the half-maximal inhibitory concentration (IC50) in assay [3] (2 mM DOPA, pH 6.5, 0.1% SDS) is 70 µM.

Regarding `Oc1ccc(O)cc1` [hydroquinone], the “Effect on purified MT activity” value in assay [1] is reported as “activates ^f”. In assay [2], the “Effect on commercial MT activity” value is reported as “activates ^e”. Also, at mushroom tyrosinase (read-out: Reported IC50 Values), the IC50 is 26 µM. Moreover, in assay [3] (2 mM DOPA), the “Concentration up to which crude MT is activated” value is no more than 100 µM and the “Effect on crude MT activity” value is listed as “activates ^d”.

In assay [3] (2 mM DOPA, pH 6.5, 0.1% SDS), `O=c1cc(CO)occ1O` [kojic acid] came in with an IC50 of 36 µM.

Take `Cn1cc[nH]c1=S` [methimazole]: the 50% inhibitory concentration (IC50) on mushroom tyrosinase (read-out: Reported IC50 Values) was 200 µM; in assay [3] (2 mM DOPA, pH 6.5, 0.1% SDS), 46 µM.

`O=C(CCc1ccc(O)cc1)c1c(O)cc(O)cc1O[C@@H]1O[C@H](CO)[C@@H](O)[C@H](O)[C@H]1O` [phloridzin]: the IC50 was 110 µM at mushroom tyrosinase (read-out: Reported IC50 Values) and 625 µM in assay [3] (2 mM DOPA, pH 6.5, 0.1% SDS).

Turning to `O=c1cccccc1O` [tropolone], the IC50 on mushroom tyrosinase (read-out: Reported IC50 Values) was 0.4 µM; in assay [3] (2 mM DOPA, pH 6.5, 0.1% SDS) it was 0.39 µM.

With lysozyme, in assay [1] (2 mM DOPA, pH 6.5), the “IC50 Purified MT” value is given as greater than 20 mg/mL ^i. In addition, the “IC50 Commer. MT” value in assay [2] (2 mM DOPA, pH 6.5) is greater than 20 mg/mL ^h. The “Reported inhibition of MT” value with mushroom tyrosinase (MT and lysozyme incubated for one hour before assaying) was 30%; in the assay on mushroom tyrosinase (mixing MT with lysozyme just before assaying) it was 8%. Besides, the “Reported IC50 value” on mushroom tyrosinase was 4.6 µg/mL. Further, on mushroom tyrosinase (read-out: Reported IC50 Values), the IC50 was 0.32 µM. In addition, in assay [3] (2 mM DOPA, pH 6.5, 0.1% SDS), the “IC50 Crude MT” value is reported as greater than 10 mg/mL ^g.
